{"source": "patent US7262309B2", "about": "“1- or 3-thia-benzonaphthoazulenes as inhibitors of tumor necrosis factor production and intermediates for the preparation thereof” (GlaxoSmith Kline Istrazivocki Centar Zagreb, D.O.O., priority 2002, dated 2007)", "tested_on": "TNF-α and IL-1 secretion", "assay": "investigated assays, not specified which (TNF-α/IL-1 secretion in human PBMC and in mouse peritoneal macrophages, LPS-induced TNF-α/IL-1 secretion in mice, writhing assay, LPS-induced shock in mice)", "conditions": "assays not named; active = IC-50 20 μM or lower (PBMC), 10 μM or lower (macrophages), 30% or more inhibition of TNF-α at 10 mg/kg, analgetic activity as acetylsalicylic acid or better, survival 40% or more at 30 mg/kg", "procedure": "Human peripheral blood mononuclear cells (PBMC) were prepared from heparinized whole blood after separating PBMC on Ficoll-Paque™Plus (Amersham-Pharmacia). To determine the TNF-α level, 3.5-5×10^4 cells were cultivated in a total volume of 200 μl for 18 to 24 hours on microtitre plates with a flat bottom (96 wells, Falcon) in RPMI 1640 medium, into which there were added 10% FBS (Fetal Bovine Serum, Biowhittaker) previously inactivated at 54° C./30 min, 100 units/ml of penicillin, […] of streptomycin and 20 mM HEPES (GIBCO). The cells were incubated at 37° C. in an atmosphere with 5% CO2 and 90% humidity. […] The IL-1 level was determined in an assay under the same conditions and with the same number of cells and the same concentration of the stimulus by ELISA procedure (R&D Systems). The percentage of inhibition of TNF-α or IL-1 production was calculated by the equation: % inhibition=[1−(TS−NC)/(PC−NC)]*100. […]\nIn order to obtain peritoneal macrophages, Balb/C mouse strain males, age 8 to 12 weeks, were injected i.p. with 300 μg of zymosan (SIGMA) dissolved in a phosphate buffer (PBS) in a total volume of 0.1 ml/mouse. […] The TNF-α level in the cell supernatant was determined by ELISA procedure (R&D Systems, Biosource). The IL-1 level was determined in an assay identical to the assay for TNF-α by ELISA procedure (R&D Systems). […]", "data": [{"substance": "Dimethyl-[3-(11-methoxy-8-oxa-1-thia-benzo[e]naphtho[3,2-h]azulene-2-ylmethoxy)-propyl]-amine [Example 7]", "values": [{"measurement": "activity in at least two investigated assays", "value": "show activity in at least two investigated assays"}]}]}
